From patent US20230398130A1, “METHODS AND COMPOSITIONS FOR DIFFERENTIATING STEM CELLS” (Massachusetts Institute of Technology, priority 2020, published 2023)
Where a name gives a salt, the structure may show the parent alone.

System: ISC-enriched organoids
Experiment: Primary screen, 384-well 2.5-D organoid differentiation (ENR+CD, 6 days, Target Selective Inhibitor Library, vs whole-plate median): ATP (CellTiter-Glo 3D, CTG)
Conditions: for Z.CTG: standard z score of FC

Cc1ccccc1C(C(=O)NC1CCCCC1)N(C(=O)Cn1ccnc1C)c1cccc(F)c1 (stereo not drawn) [AGI-5198]
Z.CTG (primary screen, dose 0.08 uM): 0.738 | Z.CTG (primary screen, dose 0.40 uM): 0.368 | Z.CTG (primary screen, dose 2.00 uM): 0.671 | Z.CTG (primary screen, dose 10.00 uM): 0.802

O=c1ncccn1[C@@H]1O[C@H](CO)[C@@H](O)[C@H]1O [Zebularine]
Z.CTG (standard z score) (dose 0.08 uM): 0.085 | Z.CTG (standard z score) (dose 0.40 uM): 0.000 | Z.CTG (standard z score) (dose 2.00 uM): −0.213 | Z.CTG (standard z score) (dose 10.00 uM): −0.399

COc1ccc(-n2nc(C(N)=O)c3c2C(=O)N(c2ccc(N4CCCCC4=O)cc2)CC3)cc1 [Apixaban]
Z.CTG (primary screen, dose 0.08 uM): −0.212 | Z.CTG (primary screen, dose 0.40 uM): 0.266 | Z.CTG (primary screen, dose 2.00 uM): −0.144 | Z.CTG (primary screen, dose 10.00 uM): −0.185

COc1ccc2cccc(CCNC(C)=O)c2c1 [Agomelatine]
Z.CTG (primary screen, dose 0.08 uM): 0.252 | Z.CTG (primary screen, dose 0.40 uM): 0.193 | Z.CTG (primary screen, dose 2.00 uM): −0.472 | Z.CTG (primary screen, dose 10.00 uM): 0.056

O=c1oc2cc(O)ccc2s1 [Tioxolone]
Z.CTG (standard z score) (dose 0.08 uM): 0.586 | Z.CTG (standard z score) (dose 0.40 uM): 0.212 | Z.CTG (standard z score) (dose 2.00 uM): 0.105 | Z.CTG (standard z score) (dose 10.00 uM): 0.783

CN(C)CCc1c[nH]c2ccc(Cn3cncn3)cc12 [Rizatriptan Benzoate]
Z.CTG (standard z score) (Dose 0.08 uM, primary screen): 0.512 | Z.CTG (standard z score) (Dose 0.40 uM, primary screen): 0.260 | Z.CTG (standard z score) (Dose 2.00 uM, primary screen): 0.302 | Z.CTG (standard z score) (Dose 10.00 uM, primary screen): −0.129

O=S(=O)(c1ccccc1)N(CC(F)(F)F)c1ccc(C(O)(C(F)(F)F)C(F)(F)F)cc1 [T0901317]
Z.CTG (standard z score) (Dose 0.08 uM, primary screen): 0.112 | Z.CTG (standard z score) (Dose 0.40 uM, primary screen): 0.426 | Z.CTG (standard z score) (Dose 2.00 uM, primary screen): 0.228 | Z.CTG (standard z score) (Dose 10.00 uM, primary screen): 0.272

Cc1cc(OCc2nnc(SC3CCCC3)n2-c2cccnc2)ccc1-c1ccc(S(C)(=O)=O)cc1 [NMS-873]
Z.CTG (Dose 0.08 uM): 0.416 | Z.CTG (Dose 0.40 uM): −0.122 | Z.CTG (Dose 2.00 uM): −2.173 | Z.CTG (Dose 10.00 uM): −3.683

COc1ccc2cc([C@H](C)C(=O)O)ccc2c1 [Naproxen]
Z.CTG (Dose 0.08 uM): −0.233 | Z.CTG (Dose 0.40 uM): −0.162 | Z.CTG (Dose 2.00 uM): −1.405 | Z.CTG (Dose 10.00 uM): −3.063

Cc1c(-c2ccc(O)cc2)n(Cc2ccc(OCCN3CCCCCC3)cc2)c2ccc(O)cc12 [Bazedoxifene HCl]
Z.CTG (primary screen, dose 0.08 uM): 1.009 | Z.CTG (primary screen, dose 0.40 uM): 0.873 | Z.CTG (primary screen, dose 2.00 uM): −1.862 | Z.CTG (primary screen, dose 10.00 uM): −2.741

CCOC(=O)N1c2ccc(C(F)(F)F)cc2[C@@H](N(Cc2cc(C(F)(F)F)cc(C(F)(F)F)c2)C(=O)OC)C[C@H]1CC [Torcetrapib]
Z.CTG (standard z score) (dose 0.08 uM): 0.677 | Z.CTG (standard z score) (dose 0.40 uM): 0.147 | Z.CTG (standard z score) (dose 2.00 uM): −0.289 | Z.CTG (standard z score) (dose 10.00 uM): −0.360

N#CC1(c2ccc(NC(=O)c3cccnc3NCc3ccncc3)cc2)CCCC1 [Apatinib]
Z.CTG (primary screen, dose 0.08 uM): 0.532 | Z.CTG (primary screen, dose 0.40 uM): 0.722 | Z.CTG (primary screen, dose 2.00 uM): 0.645 | Z.CTG (primary screen, dose 10.00 uM): 0.520

CN(C)CCOc1ccc(/C(=C(/CCCl)c2ccccc2)c2ccccc2)cc1 [Toremifene Citrate]
Z.CTG (standard z score) (dose 0.08 uM): 0.822 | Z.CTG (standard z score) (dose 0.40 uM): 0.285 | Z.CTG (standard z score) (dose 2.00 uM): −2.417 | Z.CTG (standard z score) (dose 10.00 uM): −3.335

NC(=O)c1ncn([C@@H]2O[C@H](CO)[C@@H](O)[C@H]2O)c1N [Acadesine]
Z.CTG (primary screen, dose 0.08 uM): 0.225 | Z.CTG (primary screen, dose 0.40 uM): 0.413 | Z.CTG (primary screen, dose 2.00 uM): −0.012 | Z.CTG (primary screen, dose 10.00 uM): 0.182

COc1cc2c(cc1OC)[C@@H]1Cc3ccc(OC)c(OC)c3CN1CC2 [Rotundine]
Z.CTG (standard z score) (Dose 0.08 uM, primary screen): 0.857 | Z.CTG (standard z score) (Dose 0.40 uM, primary screen): 0.818 | Z.CTG (standard z score) (Dose 2.00 uM, primary screen): 0.454 | Z.CTG (standard z score) (Dose 10.00 uM, primary screen): 0.543

Cn1c(N2CCCCS2(=O)=O)nc(C(=O)NCc2ccc(F)cc2)c(O)c1=O [BMS-707035]
Z.CTG (primary screen, dose 0.08 uM): 0.759 | Z.CTG (primary screen, dose 0.40 uM): 0.568 | Z.CTG (primary screen, dose 2.00 uM): 0.667 | Z.CTG (primary screen, dose 10.00 uM): 0.330

CCCCCCCCCCCC1=C(O)C(=O)C=C(O)C1=O [Embelin]
Z.CTG (Dose 0.08 uM): −0.770 | Z.CTG (Dose 0.40 uM): −1.728 | Z.CTG (Dose 2.00 uM): −0.776 | Z.CTG (Dose 10.00 uM): −1.720

Cc1nc(C(=O)NCC(=O)O)c(O)c2ccc(Oc3ccccc3)cc12 [FG-4592]
Z.CTG (Dose 0.08 uM): 0.782 | Z.CTG (Dose 0.40 uM): 0.679 | Z.CTG (Dose 2.00 uM): 0.692 | Z.CTG (Dose 10.00 uM): 0.568

COc1cc(N2CCC(N3CCN(C)CC3)CC2)ccc1Nc1ncc(Cl)c(Nc2ccccc2P(C)(C)=O)n1 [AP26113]
Z.CTG (primary screen, dose 0.08 uM): −0.130 | Z.CTG (primary screen, dose 0.40 uM): 0.145 | Z.CTG (primary screen, dose 2.00 uM): −1.333 | Z.CTG (primary screen, dose 10.00 uM): −4.012

O=C(NC[C@H]1CN(c2ccc(N3CCOCC3=O)cc2)C(=O)O1)c1ccc(Cl)s1 [Rivaroxaban]
Z.CTG (standard z score) (Dose 0.08 uM, primary screen): 0.050 | Z.CTG (standard z score) (Dose 0.40 uM, primary screen): 0.466 | Z.CTG (standard z score) (Dose 2.00 uM, primary screen): 0.123 | Z.CTG (standard z score) (Dose 10.00 uM, primary screen): 0.104

CCN[C@H]1CN(CCCOC)S(=O)(=O)c2sc(S(N)(=O)=O)cc21 [Brinzolamide]
Z.CTG (primary screen, dose 0.08 uM): −0.017 | Z.CTG (primary screen, dose 2.00 uM): 0.282

C[C@H](CS)C(=O)N1CCC[C@H]1C(=O)O [Captopril]
Z.CTG (Dose 0.08 uM): −0.134 | Z.CTG (Dose 0.40 uM): 0.257 | Z.CTG (Dose 2.00 uM): 0.294 | Z.CTG (Dose 10.00 uM): 0.255

O=C(NC(Cc1cc(=O)[nH]c2ccccc12)C(=O)O)c1ccc(Cl)cc1 (stereo not drawn) [Rebamipide]
Z.CTG (standard z score) (Dose 0.08 uM, primary screen): −0.612 | Z.CTG (standard z score) (Dose 0.40 uM, primary screen): −1.217 | Z.CTG (standard z score) (Dose 2.00 uM, primary screen): −0.484 | Z.CTG (standard z score) (Dose 10.00 uM, primary screen): −0.672

CCCc1nc2c(C)cc(-c3nc4ccccc4n3C)cc2n1Cc1ccc(-c2ccccc2C(=O)O)cc1 [Telmisartan]
Z.CTG (standard z score) (Dose 0.08 uM, primary screen): 0.320 | Z.CTG (standard z score) (Dose 0.40 uM, primary screen): 0.584 | Z.CTG (standard z score) (Dose 2.00 uM, primary screen): 0.153 | Z.CTG (standard z score) (Dose 10.00 uM, primary screen): 0.549

Cc1ccc(-c2cc(C(F)(F)F)nn2-c2ccc(S(N)(=O)=O)cc2)cc1 [Celecoxib]
Z.CTG (Dose 0.08 uM): −0.082 | Z.CTG (Dose 0.40 uM): −0.714 | Z.CTG (Dose 2.00 uM): −0.282 | Z.CTG (Dose 10.00 uM): −0.306

CCOc1ccccc1-n1c(C(C)N2CCN(C(=O)COc3ccc(Cl)cc3)CC2)nc2ccccc2c1=O (stereo not drawn) [Erastin]
Z.CTG (Dose 0.08 uM): 0.537 | Z.CTG (Dose 0.40 uM): 0.681 | Z.CTG (Dose 2.00 uM): 0.907 | Z.CTG (Dose 10.00 uM): 0.711

Cc1cc(C(C)(C)C)c(O)c(C)c1CC1=NCCN1 [Oxymetazoline HCl]
Z.CTG (Dose 0.08 uM): 0.340 | Z.CTG (Dose 0.40 uM): 0.281 | Z.CTG (Dose 2.00 uM): −0.016 | Z.CTG (Dose 10.00 uM): 0.282

CC[C@H](NC(=O)[C@H](C)NC)C(=O)N1C[C@@H](O)C[C@H]1Cc1c(-c2[nH]c3cc(F)ccc3c2C[C@@H]2C[C@H](O)CN2C(=O)[C@H](CC)NC(=O)[C@H](C)NC)[nH]c2cc(F)ccc12 [Birinapant]
Z.CTG (primary screen, dose 0.08 uM): −0.615 | Z.CTG (primary screen, dose 0.40 uM): 0.226 | Z.CTG (primary screen, dose 2.00 uM): 0.542 | Z.CTG (primary screen, dose 10.00 uM): 0.293

C[C@@H](c1ncncc1F)[C@](O)(Cn1cncn1)c1ccc(F)cc1F [Voriconazole]
Z.CTG (standard z score) (dose 0.08 uM): 0.617 | Z.CTG (standard z score) (dose 0.40 uM): 0.730 | Z.CTG (standard z score) (dose 2.00 uM): 0.680 | Z.CTG (standard z score) (dose 10.00 uM): 0.783

COc1ccc2nc([S@@+]([O-])Cc3ncc(C)c(OC)c3C)[nH]c2c1 [Esomeprazole Sodium]
Z.CTG (Dose 0.08 uM): 0.689 | Z.CTG (Dose 0.40 uM): 0.475 | Z.CTG (Dose 2.00 uM): 0.923 | Z.CTG (Dose 10.00 uM): 0.648

CN1CCN(c2nc(C3=C(c4c[nH]c5ccccc45)C(=O)NC3=O)c3ccccc3n2)CC1 [Sotrastaurin]
Z.CTG (standard z score) (Dose 0.08 uM, primary screen): 0.024 | Z.CTG (standard z score) (Dose 0.40 uM, primary screen): −0.286 | Z.CTG (standard z score) (Dose 2.00 uM, primary screen): −0.650 | Z.CTG (standard z score) (Dose 10.00 uM, primary screen): −0.578

CC(C)OC(=O)OCOP(=O)(CO[C@H](C)Cn1cnc2c(N)ncnc21)OCOC(=O)OC(C)C [Tenofovir Disoproxil Fumarate]
Z.CTG (standard z score) (dose 0.08 uM): 0.172 | Z.CTG (standard z score) (dose 0.40 uM): −0.004 | Z.CTG (standard z score) (dose 2.00 uM): −0.378 | Z.CTG (standard z score) (dose 10.00 uM): −1.034
